The target in assay [1] is T1, Class 1 histone deacetylase (Homo sapiens, UniProt Q13547+O15379+Q92769+Q9BY41). The experiment in a line: Inhibition of class 1 HDAC in human Cal27CisR cells assessed as potentiation of cisplatin-induced cytotoxicity by measuring fold reduction in cisplatin IC50 at […] preincubated for 48 hrs followed by cisplatin addition and measured after 72 hrs by MTT assay relative to cisplatin IC50. It is filed as cell-based.

In assay [2] the target is T1, Class 1 histone deacetylase. The experiment in a line: Inhibition of class 1 HDAC in human Cal27CisR cells assessed as increase in histone H3 acetylation at […] measured after 24 hrs by immunoblot analysis. It is filed as cell-based.
For assay [3] the target is unchanged. The experiment in a line: Inhibition of class 1 HDAC in human CAL27 cells assessed as increase in histone H3 acetylation at […] measured after 24 hrs by immunoblot analysis. It is filed as cell-based. The conditions noted are these: CAL-27. Background: A western blot detects proteins with antibodies after separation by electrophoresis.
Assay [4] has the same target. Nature of the assay: Inhibition of class 1 HDAC in human Cal27CisR cells assessed as potentiation of cisplatin-induced apoptosis by measuring increase in accumulation at sub-G1 phase at […] preincubated for 48 hrs followed by cisplatin addition and measured after 24 hrs by propidium iodide staining based flow cytometry. Type of assay: cell-based. (In general: A flow cytometer gives signals particle by particle.)

Assay [5] shares this target. The experiment in a line: Inhibition of class 1 HDAC in human CAL27 cells assessed as potentiation of cisplatin-induced apoptosis by measuring increase in accumulation at sub-G1 phase at […] preincubated for 48 hrs followed by cisplatin addition and measured after 24 hrs by propidium iodide staining based flow cytometry. The conditions noted are these: CAL-27. Type of assay: cell-based.

Assay [6] shares this target. The experiment in a line: Inhibition of class 1 HDAC in human Cal27CisR cells assessed as potentiation of cisplatin-induced cytotoxicity by measuring combination index at 5 uM in presence of 10 uM cisplatin by MTT assay based Chou-Talalay analysis. It is filed as cell-based. For orientation: Tetrazolium assays rely on reduction of a dye to a coloured formazan, in cell work by metabolically active cells.

For assay [7] the target is unchanged. Nature of the assay: Inhibition of class 1 HDAC in human Cal27CisR cells assessed as potentiation of cisplatin-induced cytotoxicity by measuring combination index at 5 uM in presence of […] cisplatin by MTT assay based Chou-Talalay analysis. Type of assay: cell-based.
Assay [8] has the same target. The experiment in a line: Inhibition of class 1 HDAC in human CAL27 cells assessed as potentiation of cisplatin-induced apoptosis by measuring increase in accumulation at sub-G1 phase at 5 uM preincubated for 48 hrs followed by cisplatin addition and measured after 24 hrs by propidium iodide staining based flow cytometry. The conditions noted are these: CAL-27. Type of assay: cell-based.

The target is the same in assay [9]. Nature of the assay: Inhibition of class 1 HDAC in human Cal27CisR cells assessed as potentiation of cisplatin-induced apoptosis by measuring increase in accumulation at sub-G1 phase at 5 uM preincubated for 48 hrs followed by cisplatin addition and measured after 24 hrs by propidium iodide staining based flow cytometry. It is filed as cell-based.
Assay [10] deals with T2, Protein deacetylase HDAC6 (Homo sapiens) (UniProt Q9UBN7).
T2 sequence (whole entry): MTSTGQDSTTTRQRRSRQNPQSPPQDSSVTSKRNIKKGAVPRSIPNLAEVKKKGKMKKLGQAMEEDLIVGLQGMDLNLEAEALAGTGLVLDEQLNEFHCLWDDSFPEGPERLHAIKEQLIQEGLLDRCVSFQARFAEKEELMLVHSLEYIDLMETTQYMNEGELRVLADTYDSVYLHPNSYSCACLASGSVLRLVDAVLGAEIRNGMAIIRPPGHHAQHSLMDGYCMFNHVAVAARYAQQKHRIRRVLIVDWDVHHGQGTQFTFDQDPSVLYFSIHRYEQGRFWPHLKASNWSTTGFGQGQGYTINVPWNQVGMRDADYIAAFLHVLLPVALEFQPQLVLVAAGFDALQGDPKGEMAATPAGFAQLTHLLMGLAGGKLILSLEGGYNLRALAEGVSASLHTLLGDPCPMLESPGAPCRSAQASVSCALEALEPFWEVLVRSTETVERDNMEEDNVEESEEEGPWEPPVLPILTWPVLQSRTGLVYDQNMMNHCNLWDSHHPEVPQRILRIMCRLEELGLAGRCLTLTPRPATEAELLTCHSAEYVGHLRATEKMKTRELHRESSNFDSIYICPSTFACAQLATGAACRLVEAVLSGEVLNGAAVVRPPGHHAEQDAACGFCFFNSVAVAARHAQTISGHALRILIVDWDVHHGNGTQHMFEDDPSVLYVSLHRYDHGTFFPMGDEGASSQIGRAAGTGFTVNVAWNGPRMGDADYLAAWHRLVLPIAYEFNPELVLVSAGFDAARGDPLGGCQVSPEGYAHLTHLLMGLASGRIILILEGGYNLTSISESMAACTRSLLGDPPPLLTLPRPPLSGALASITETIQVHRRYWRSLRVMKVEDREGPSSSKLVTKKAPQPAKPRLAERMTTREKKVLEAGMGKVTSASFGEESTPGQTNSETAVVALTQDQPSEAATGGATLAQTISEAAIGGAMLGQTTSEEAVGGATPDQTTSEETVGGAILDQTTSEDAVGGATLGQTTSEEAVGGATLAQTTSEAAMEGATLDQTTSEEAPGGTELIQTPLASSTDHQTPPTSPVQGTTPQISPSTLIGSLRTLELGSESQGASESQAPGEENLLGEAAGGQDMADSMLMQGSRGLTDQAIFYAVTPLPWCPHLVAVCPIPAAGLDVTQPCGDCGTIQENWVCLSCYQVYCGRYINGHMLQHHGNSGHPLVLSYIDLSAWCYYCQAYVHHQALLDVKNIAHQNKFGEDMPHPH
Nature of the assay: Inhibition of HDAC6 in human CAL27 cells assessed as acetylation of alpha-tubulin at 5 uM measured after 24 hrs by immunoblot analysis. It is filed as cell-based.

Assay [11] addresses T1, Class 1 histone deacetylase. Nature of the assay: Inhibition of class 1 HDAC in human Cal27CisR cells assessed as potentiation of cisplatin-induced apoptosis assessed as increase in caspase-3/7 activation at 5 uM preincubated for 48 hrs followed by cisplatin addition and measured after 24 hrs in presence of pan caspase inhibitor QVD by CellEvent caspase 3/7 green detection reagent/Hoechst 33342 staining based imaging analysis. Type of assay: cell-based.

Assay [12] has the same target.
Assay [13] has the same target. The conditions noted are these: CAL-27.
Description: Inhibition of class 1 HDAC in human CAL27 cells assessed as potentiation of cisplatin-induced cytotoxicity by measuring combination index at 0.1 uM in presence of 0.32 uM cisplatin by MTT assay based Chou-Talalay analysis
Assay [14] shares this target. It is filed as cell-based.
Assay [15] has the same target. The conditions noted are these: CAL-27. This is another data set of the same source.
Description: Inhibition of class 1 HDAC in human CAL27 cells assessed as potentiation of cisplatin-induced cytotoxicity by measuring combination index at 0.1 uM in presence of 1 uM cisplatin by MTT assay based Chou-Talalay analysis
Assay [16] shares this target. The conditions noted are these: CAL-27. This is another data set of the same source.
Description: Inhibition of class 1 HDAC in human CAL27 cells assessed as potentiation of cisplatin-induced cytotoxicity by measuring combination index at 0.25 uM in presence of 10 uM cisplatin by MTT assay based Chou-Talalay analysis
Assay [17] in a line: Induction of apoptosis in human Cal27CisR cells assessed as accumulation at sub-G1 phase at 100 uM measured after 48 hrs by propidium iodide staining based flow cytometry relative to control. Type of assay: functional.
The target in assay [18] is T1, Class 1 histone deacetylase. This is another data set of the same source.
Description: Inhibition of class 1 HDAC in human Cal27CisR cells assessed as potentiation of cisplatin-induced cytotoxicity by measuring combination index at 0.25 uM in presence of 10 uM cisplatin by MTT assay based Chou-Talalay analysis
For assay [19] the target is unchanged. The conditions noted are these: CAL-27. This is another data set of the same source.
Description: Inhibition of class 1 HDAC in human CAL27 cells assessed as potentiation of cisplatin-induced cytotoxicity by measuring combination index at 0.25 uM in presence of 0.1 uM cisplatin by MTT assay based Chou-Talalay analysis

Calls of active or inactive are those of the source. The calls are words filed in the database; no cut-off is given here.

T1 sequence (O15379 whole entry, looked up): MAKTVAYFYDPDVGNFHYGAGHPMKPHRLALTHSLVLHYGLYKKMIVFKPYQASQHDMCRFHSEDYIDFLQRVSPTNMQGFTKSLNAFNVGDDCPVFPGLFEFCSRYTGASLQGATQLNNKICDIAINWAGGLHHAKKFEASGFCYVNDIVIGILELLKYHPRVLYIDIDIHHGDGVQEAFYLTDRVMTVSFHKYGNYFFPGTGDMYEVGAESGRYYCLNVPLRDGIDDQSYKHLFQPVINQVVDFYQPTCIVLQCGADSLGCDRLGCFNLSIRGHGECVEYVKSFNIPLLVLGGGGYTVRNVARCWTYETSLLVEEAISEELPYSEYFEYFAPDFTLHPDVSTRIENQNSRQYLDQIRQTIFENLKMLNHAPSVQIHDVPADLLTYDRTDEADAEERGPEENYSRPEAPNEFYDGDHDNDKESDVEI
T1 sequence (Q13547 whole entry, looked up): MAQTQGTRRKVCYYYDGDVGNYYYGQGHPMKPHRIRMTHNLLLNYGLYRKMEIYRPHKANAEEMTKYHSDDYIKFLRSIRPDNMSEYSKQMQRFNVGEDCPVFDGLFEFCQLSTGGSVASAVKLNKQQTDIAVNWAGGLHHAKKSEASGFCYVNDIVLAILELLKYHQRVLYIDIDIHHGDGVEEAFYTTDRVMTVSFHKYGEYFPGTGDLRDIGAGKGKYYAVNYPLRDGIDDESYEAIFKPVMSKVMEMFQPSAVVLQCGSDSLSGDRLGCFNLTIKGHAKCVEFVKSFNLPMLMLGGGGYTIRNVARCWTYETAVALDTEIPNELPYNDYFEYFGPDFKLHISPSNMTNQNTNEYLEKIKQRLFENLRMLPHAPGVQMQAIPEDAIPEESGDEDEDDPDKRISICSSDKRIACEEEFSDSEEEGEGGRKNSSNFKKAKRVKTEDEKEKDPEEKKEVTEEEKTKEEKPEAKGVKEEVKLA
T1 sequence (Q92769 whole entry, looked up): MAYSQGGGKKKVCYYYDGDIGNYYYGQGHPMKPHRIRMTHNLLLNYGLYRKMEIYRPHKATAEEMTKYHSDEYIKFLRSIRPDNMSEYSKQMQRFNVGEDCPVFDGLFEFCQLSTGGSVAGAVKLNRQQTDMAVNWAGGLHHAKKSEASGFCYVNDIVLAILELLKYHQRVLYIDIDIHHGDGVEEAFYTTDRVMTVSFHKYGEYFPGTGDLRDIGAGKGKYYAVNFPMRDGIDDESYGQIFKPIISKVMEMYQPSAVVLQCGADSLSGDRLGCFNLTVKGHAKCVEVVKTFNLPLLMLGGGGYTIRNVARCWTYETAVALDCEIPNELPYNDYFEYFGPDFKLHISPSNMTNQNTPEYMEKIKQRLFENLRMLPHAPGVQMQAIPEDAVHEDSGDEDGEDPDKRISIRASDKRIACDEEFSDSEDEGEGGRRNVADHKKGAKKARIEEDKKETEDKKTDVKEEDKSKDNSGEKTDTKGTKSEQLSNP
T1 sequence (Q9BY41 whole entry, looked up): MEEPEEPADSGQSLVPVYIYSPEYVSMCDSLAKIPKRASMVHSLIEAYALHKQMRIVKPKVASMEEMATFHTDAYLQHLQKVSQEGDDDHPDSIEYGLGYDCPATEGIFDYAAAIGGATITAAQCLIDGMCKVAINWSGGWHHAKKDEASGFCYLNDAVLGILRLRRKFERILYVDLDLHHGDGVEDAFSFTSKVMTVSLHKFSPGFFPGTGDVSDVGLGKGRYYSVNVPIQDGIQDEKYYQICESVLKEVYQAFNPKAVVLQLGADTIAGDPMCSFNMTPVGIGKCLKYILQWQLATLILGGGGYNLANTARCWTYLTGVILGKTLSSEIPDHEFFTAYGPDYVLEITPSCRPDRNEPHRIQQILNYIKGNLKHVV

Consider `Cc1cc(C)cc(C(=O)N(CC(=O)NCc2ccccc2)Cc2ccc(C(=O)Nc3cc(-c4ccccc4)ccc3N)cc2)c1`, for which the Ratio IC50 in assay [1] amounted to 5.27. Besides, the inhibition entry in assay [2], in assay [3], in [4] and in assay [5] was “Active” each time.
`Cc1cc(C)cc(C(=O)N(CCCCCC(=O)Nc2cc(-c3ccccc3)ccc2N)CC(=O)NCc2ccccc2)c1`: the CI in assay [6] is 0.1; in assay [7] it was < 0.2. The inhibition result in assay [8] and in assay [9] was “Active” throughout. Moreover, the inhibition entry in assay [10] and in [11] was “inactive” in each case.
In the case of `CN(C)c1ccc(C(=O)N(CC(=O)NCc2ccccc2)Cc2ccc(C(=O)Nc3ccccc3N)cc2)cc1`, the CI is < 0.2 in assay [12]; < 0.2 in assay [13]; 0.91 in assay [15]; 0.02 in [16]; 0.23 in assay [18]; 0.56 in assay [19]. Besides, the IC50 – broadly, the concentration at which inhibition is half-maximal – in assay [14] was 8.42 µM. The Activity in assay [17] amounted to 32.1%.

For the origin of these results see ChEMBL document CHEMBL4334526, “Synthesis of Peptoid-Based Class I-Selective Histone Deacetylase Inhibitors with Chemosensitizing Properties” (J Med Chem, 2019).
